From patent EP2970215B1, “PYRROLIDINE DERIVATIVES, PHARMACEUTICAL COMPOSITIONS CONTAINING THEM, AND THEIR USE IN THERAPY” (AbbVie Deutschland GmbH & Co. KG, priority 2013, dated 2014)

These compounds were tested against T1, human GlyT1c transporter (Homo sapiens, UniProt P48067) (assay: Radioligand binding assay using recombinant CHO cell membranes expressing human GlyT1). Conditions: radioligand binding to human GlyT1c transporter-expressing membranes.
T1 construct: expressed in transfected cells; host or cells: CHO cells (recombinant; line hGlyT1c_5_CHO is named for the uptake assay)
T1 sequence (P48067 1-706): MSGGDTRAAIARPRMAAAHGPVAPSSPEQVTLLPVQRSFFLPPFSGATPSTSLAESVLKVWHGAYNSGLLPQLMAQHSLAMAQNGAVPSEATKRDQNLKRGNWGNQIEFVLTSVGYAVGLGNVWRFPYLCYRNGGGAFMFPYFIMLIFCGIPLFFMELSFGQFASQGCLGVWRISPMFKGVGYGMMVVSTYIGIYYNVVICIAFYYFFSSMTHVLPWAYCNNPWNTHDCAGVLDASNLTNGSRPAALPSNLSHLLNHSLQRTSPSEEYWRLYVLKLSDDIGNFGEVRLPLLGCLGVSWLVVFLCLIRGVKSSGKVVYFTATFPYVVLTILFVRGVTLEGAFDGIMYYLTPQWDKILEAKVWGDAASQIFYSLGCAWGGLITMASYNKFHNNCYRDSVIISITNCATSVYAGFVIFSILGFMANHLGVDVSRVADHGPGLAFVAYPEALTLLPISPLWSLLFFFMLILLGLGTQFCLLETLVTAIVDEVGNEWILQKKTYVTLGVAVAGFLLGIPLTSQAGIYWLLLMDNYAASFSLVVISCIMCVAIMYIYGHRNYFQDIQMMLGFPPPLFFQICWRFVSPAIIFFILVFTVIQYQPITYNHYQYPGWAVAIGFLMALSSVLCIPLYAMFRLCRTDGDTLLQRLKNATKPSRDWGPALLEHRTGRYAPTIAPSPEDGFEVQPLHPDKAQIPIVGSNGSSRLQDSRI
Source text: 2. Radioligand binding assays using recombinant CHO cell membranes expressing human GlyT1: […]

| Compound | Ki [µM] |
| --- | --- |
| Cn1cnc(S(=O)(=O)N2C[C@H](Nc3cc(C4CC4)ncn3)[C@@H](c3ccccc3)C2)c1 [Example 612, 6-cyclopropyl-N-{(3R,4S)-1-[(1-methyl-1H-imidazol-4-yl)sulfonyl]-4-phenylpyrrolidin-3-yl}pyrimidin-4-amine] | ≤ 1 |
| CCc1cc(N[C@H]2CN(S(=O)(=O)c3cn(C)cn3)C[C@@H]2c2ccc(F)cc2)ncn1 [Example 613, 6-ethyl-N-{(3R,4S)-4-(4-fluorophenyl)-1-[(1-methyl-1H-imidazol-4-yl)sulfonyl]pyrrolidin-3-yl}pyrimidin-4-amine] | ≤ 1 |
| CC(C)c1cc(N[C@H]2CN(S(=O)(=O)c3cn(C)cn3)C[C@@H]2c2ccc(F)cc2)ncn1 [Example 614, N-{(3R,4S)-4-(4-fluorophenyl)-1-[(1-methyl-1H-imidazol-4-yl)sulfonyl]pyrrolidin-3-yl}-6-(propan-2-yl)pyrimidin-4-amine] | ≤ 1 |
| Cc1nc(N[C@H]2CN(S(=O)(=O)c3cn(C)cn3)C[C@@H]2c2ccc(F)cc2)cc(C(F)(F)F)n1 [Example 615, N-{(3R,4S)-4-(4-fluorophenyl)-1-[(1-methyl-1H-imidazol-4-yl)sulfonyl]pyrrolidin-3-yl}-2-methyl-6-(trifluoromethyl)pyrimidin-4-amine] | ≤ 1 |
| CCCc1cc(N[C@H]2CN(S(=O)(=O)c3cn(C)cn3)C[C@@H]2c2ccc(F)cc2)ncn1 [Example 616, N-{(3R,4S)-4-(4-fluorophenyl)-1-[(1-methyl-1H-imidazol-4-yl)sulfonyl]pyrrolidin-3-yl}-6-propylpyrimidin-4-amine] | ≤ 1 |
| Cn1cnc(S(=O)(=O)N2C[C@H](Nc3cc(C(F)(F)F)c(Cl)cn3)[C@@H](c3ccc(F)cc3)C2)c1 [Example 617, 5-chloro-N-{(3R,4S)-4-(4-fluorophenyl)-1-[(1-methyl-1H-imidazol-4-yl)sulfonyl]pyrrolidin-3-yl}-4-(trifluoromethyl)pyridin-2-amine] | ≤ 0.01 |
| Cn1cnc(S(=O)(=O)N2C[C@@H](Nc3ccc(Cl)c(C(F)(F)F)c3)[C@H](C3CCCO3)C2)c1 (stereo partly drawn) [Example 618, (3S,4R)-N-[4-chloro-3-(trifluoromethyl)phenyl]-1-[(1-methyl-1H-imidazol-4-yl)sulfonyl]-4-(tetrahydrofuran-2-yl)pyrrolidin-3-amine] | ≤ 1 |
| Cn1cnc(S(=O)(=O)N2C[C@H](Nc3ccc(Cl)c(C(F)(F)F)c3)[C@@H](C3CCCO3)C2)c1 (stereo partly drawn) [Example 619, (3R,4S)-N-[4-chloro-3-(trifluoromethyl)phenyl]-1-[(1-methyl-1H-imidazol-4-yl)sulfonyl]-4-(tetrahydrofuran-2-yl)pyrrolidin-3-amine] | ≤ 1 |
| CCOc1cc(N[C@H]2CN(S(=O)(=O)c3cn(C)cn3)C[C@@H]2c2ccccc2)ncn1 [Example 620, 6-ethoxy-N-{(3R,4S)-1-[(1-methyl-1H-imidazol-4-yl)sulfonyl]-4-phenylpyrrolidin-3-yl}pyrimidin-4-amine] | ≤ 1 |
| COc1cc(N[C@H]2CN(S(=O)(=O)c3cn(C)cn3)C[C@@H]2c2ccccc2)ncn1 [Example 621, 6-methoxy-N-{(3R,4S)-1-[(1-methyl-1H-imidazol-4-yl)sulfonyl]-4-phenylpyrrolidin-3-yl}pyrimidin-4-amine] | ≤ 10 |
| CC(C)COc1cc(N[C@H]2CN(S(=O)(=O)c3cn(C)cn3)C[C@@H]2c2ccccc2)ncn1 [Example 624, N-{(3R,4S)-1-[(1-methyl-1H-imidazol-4-yl)sulfonyl]-4-phenylpyrrolidin-3-yl}-6-(2-methylpropoxy)pyrimidin-4-amine] | ≤ 1 |
| CCCCCCO[C@H]1CN(S(=O)(=O)c2cn(C)cn2)C[C@@H]1c1ccc(F)cc1 [Example 625, 4-{[(3S,4R)-3-(4-fluorophenyl)-4-(hexyloxy)pyrrolidin-1-yl]sulfonyl}-1-methyl-1H-imidazole] | ≤ 0.01 |
| Cc1cc(N[C@H]2CN(S(=O)(=O)c3cn(C)cn3)C[C@@H]2c2ccccc2)ncn1 [Example 637, 6-methyl-N-{(3R,4S)-1-[(1-methyl-1H-imidazol-4-yl)sulfonyl]-4-phenylpyrrolidin-3-yl}pyrimidin-4-amine] | ≤ 10 |
| Cc1ccc(N[C@H]2CN(S(=O)(=O)c3cn(C)cn3)C[C@@H]2c2ccc(F)cc2)cc1C(F)(F)F [Example 638, (3R,4S)-4-(4-fluorophenyl)-1-[(1-methyl-1H-imidazol-4-yl)sulfonyl]-N-[4-methyl-3-(trifluoromethyl)phenyl]pyrrolidin-3-amine] | ≤ 1 |
| Cn1cnc(S(=O)(=O)N2C[C@H](Nc3ccc(C#N)c(C(F)(F)F)c3)[C@@H](c3ccc(F)cc3)C2)c1 [Example 639, 4-({(3R,4S)-4-(4-fluorophenyl)-1-[(1-methyl-1H-imidazol-4-yl)sulfonyl]pyrrolidin-3-yl}amino)-2-(trifluoromethyl)benzonitrile] | ≤ 10 |
| CCCn1cc([C@H]2CN(S(=O)(=O)c3cn(C)cn3)C[C@@H]2c2ccc(F)cc2)nn1 [Example 640, 4-{(3R,4S)-4-(4-fluorophenyl)-1-[(1-methyl-1H-imidazol-4-yl)sulfonyl]pyrrolidin-3-yl}-1-propyl-1H-1,2,3-triazole] | ≤ 1 |
| Cn1cnc(S(=O)(=O)N2C[C@H](Nc3ccc4sccc4c3)[C@@H](c3ccccc3)C2)c1 [Example 654, (3R,4S)-N-(1-benzothiophen-5-yl)-1-[(1-methyl-1H-imidazol-4-yl)sulfonyl]-4-phenylpyrrolidin-3-amine] | ≤ 1 |

The remaining lines, values ahead:

| Ki [µM] | Compound |
| --- | --- |
| ≤ 10 | Cn1cnc(S(=O)(=O)N2C[C@H](NC(=O)COc3ccc(F)cc3)[C@@H](c3ccc(F)cc3)C2)c1 [Example 644, 2-(4-fluorophenoxy)-N-{(3R,4S)-4-(4-fluorophenyl)-1-[(1-methyl-1H-imidazol-4-yl)sulfonyl]pyrrolidin-3-yl}acetamide] |
| ≤ 0.01 | Cn1cnc(S(=O)(=O)N2C[C@H](Nc3ccc(F)c(OC(F)(F)F)c3)[C@@H](c3ccccc3)C2)c1 [Example 646, (3R,4S)-N-[4-fluoro-3-(trifluoromethoxy)phenyl]-1-[(1-methyl-1H-imidazol-4-yl)sulfonyl]-4-phenylpyrrolidin-3-amine] |
| ≤ 10 | COCCCCN[C@H]1CN(S(=O)(=O)c2cn(C)cn2)C[C@@H]1c1ccccc1 [Example 647, (3R,4S)-N-(4-methoxybutyl)-1-[(1-methyl-1H-imidazol-4-yl)sulfonyl]-4-phenylpyrrolidin-3-amine] |
| ≤ 10 | CCC(CCCN[C@H]1CN(S(=O)(=O)c2cn(C)cn2)C[C@@H]1c1ccccc1)OC (stereo partly drawn) [Example 648, (3R,4S)-N-(4-methoxyhexyl)-1-[(1-methyl-1H-imidazol-4-yl)sulfonyl]-4-phenylpyrrolidin-3-amine] |
| ≤ 0.1 | CCCC1CC1CN[C@H]1CN(S(=O)(=O)c2cn(C)cn2)C[C@@H]1c1ccccc1 (stereo partly drawn) [Example 649, (3R,4S)-1-[(1-methyl-1H-imidazol-4-yl)sulfonyl]-4-phenyl-N-[(2-propylcyclopropyl)methyl]pyrrolidin-3-amine] |
| ≤ 1 | CCCC1CC1CN[C@H]1CN(S(=O)(=O)c2cn(C)cn2)C[C@@H]1c1ccccc1 (stereo partly drawn) [Example 650, (3R,4S)-1-[(1-methyl-1H-imidazol-4-yl)sulfonyl]-4-phenyl-N-[(2-propylcyclopropyl)methyl]pyrrolidin-3-amine] |
| ≤ 10 | COc1ccc(N[C@H]2CN(S(=O)(=O)c3cn(C)cn3)C[C@@H]2c2ccccc2)cc1C(F)(F)F [Example 653, (3R,4S)-N-[4-methoxy-3-(trifluoromethyl)phenyl]-1-[(1-methyl-1H-imidazol-4-yl)sulfonyl]-4-phenylpyrrolidin-3-amine] |
| ≤ 1 | Cn1cnc(S(=O)(=O)N2C[C@H](Nc3ccc4c(c3)CCC4)[C@@H](c3ccccc3)C2)c1 [Example 655, (3R,4S)-N-(2,3-dihydro-1H-inden-5-yl)-1-[(1-methyl-1H-imidazol-4-yl)sulfonyl]-4-phenylpyrrolidin-3-amine] |
| ≤ 1 | Cn1cnc(S(=O)(=O)N2C[C@H](Nc3ccc(C(F)(F)F)c(C(F)(F)F)c3)[C@@H](c3ccccc3)C2)c1 [Example 656, (3R,4S)-N-[3,4-bis(trifluoromethyl)phenyl]-1-[(1-methyl-1H-imidazol-4-yl)sulfonyl]-4-phenylpyrrolidin-3-amine] |
| ≤ 1 | Cn1cnc(S(=O)(=O)N2C[C@H](Nc3ccc4c(c3)CCCC4)[C@@H](c3ccccc3)C2)c1 [Example 657, (3R,4S)-1-[(1-methyl-1H-imidazol-4-yl)sulfonyl]-4-phenyl-N-(5,6,7,8-tetrahydronaphthalen-2-yl)pyrrolidin-3-amine] |
| ≤ 1 | Cn1cnc(S(=O)(=O)N2C[C@H](Nc3ccc4c(c3)CCCO4)[C@@H](c3ccccc3)C2)c1 [Example 658, (3R,4S)-N-(3,4-dihydro-2H-chromen-6-yl)-1-[(1-methyl-1H-imidazol-4-yl)sulfonyl]-4-phenylpyrrolidin-3-amine] |
| ≤ 1 | Cn1cnc(S(=O)(=O)N2C[C@H](Nc3ccc4occc4c3)[C@@H](c3ccccc3)C2)c1 [Example 660, (3R,4S)-N-(1-benzofuran-5-yl)-1-[(1-methyl-1H-imidazol-4-yl)sulfonyl]-4-phenylpyrrolidin-3-amine] |
